≈ marks a conversion by molar mass, not a printed value.
Columns and labels:
E6SM [1] = assay: Tested for antiviral activity against vaccinia virus in human embryonic skin muscle fibroblast; format: functional; details: Muscle tissue
HEL [2] = assay: (§1) Tested for antiviral activity against thymidine kinase wild type Varicella zoster virus in human embryonic lung fibroblast; format: functional
E6SM [3] = assay: Tested for antiviral activity against VSV-virus in human embryonic skin muscle fibroblasts; format: functional; details: Muscle tissue
E6SM [4] = assay: The compound was tested for antiviral activity against thymidine kinase-deficient (TK-HSV-1)virus in E6SM cell line(human embryonic skin-muscle fibroblasts); format: functional
HEL [5] = assay: Tested for antiviral activity against thymidine kinase deficient Varicella zoster virus in human embryonic lung fibroblasts
E6SM [6] = assay: Tested for antiviral activity against thymidine kinase-deficient (TK-HSV-2G) virus in E6SM cell line(human embryonic skin-muscle fibroblasts); format: functional
E6SM [7] = assay: Tested for antiviral activity against herpes simplex virus type 1(KOS) in E6SM cell line(human embryonic skin-muscle fibroblasts); format: functional
HEL [8] = assay: Tested for cytotoxic activity in human embryonic lung fibroblast (HEL); format: functional
E6SM [9] = assay: Tested for cytotoxic activity in human embryonic skin muscle fibroblast (E6SM); format: functional; details: Muscle tissue
MT4 [10] = assay: The compound was tested for effective concentration required to protect MT-4 cells against the cytopathicity of HIV-2(ROD); format: functional, cell-based; details: Homo sapiens
MT4 [11] = assay: The compound was tested for effective concentration required to protect MT-4 cells against the cytopathicity of HIV-1(IIIB); format: functional, cell-based; details: Homo sapiens
MT4 [12] = assay: The compound was tested for cytotoxic concentration required to reduce the viability of MT-4 cells; format: functional; details: Homo sapiens
[13] = system: Staphylococcus epidermidis; assay: Tested for the antimicrobial activity as minimum inhibitory concentration against Staphylococcus epidermidis ATCC 12228; format: functional
Klebsiella pneumoniae [14] = assay: Tested for the antimicrobial activity as minimum inhibitory concentration against Klebsiella pneumoniae ATCC 13883; format: functional
Staphylococcus hominis [15] = assay: Tested for the antimicrobial activity as minimum inhibitory concentration against Staphylococcus hominis ATCC 27844; format: functional
Escherichia coli [16] = assay: Tested for the antimicrobial activity as minimum inhibitory concentration against Escherichia coli ATCC 25922; format: functional
Staphylococcus aureus [17] = assay: Tested for the antimicrobial activity as minimum inhibitory concentration against Staphylococcus aureus ATCC 6538; format: functional
MOLT-4 [18] = assay: Tested for the concentration required to reduce the viability of leukemia cells by 50% against cell growth of T cell leukemia cell line MOLT-4 using MTT assay; format: functional; details: Homo sapiens, read-out: LC50 (the source's name)
Vero [19] = assay: Tested for cytotoxic activity in African green monkey kidney cells (Vero); format: functional; details: Chlorocebus sabaeus
Vero [20] = assay: Tested for antiviral activity against coxsackie B-4 virus in African green monkey kidney cell (Vero); format: functional; details: Chlorocebus sabaeus
HuT78 [21] = assay: Tested for the inhibitory concentration against cell growth of human leukemic cell line HuT78; format: functional
[22] = system: Staphylococcus epidermidis; assay: Tested for the antimicrobial activity against Staphylococcus epidermidis ATCC 12228; format: functional
Vero [23] = assay: Tested for antiviral activity against Sindbis virus in African green monkey kidney cell (Vero); format: functional; details: Chlorocebus sabaeus
Vero [24] = assay: Tested for antiviral activity against Reo-1 virus in African green monkey kidney cell (Vero); format: functional; details: Chlorocebus sabaeus
E6SM [25] = assay: as §1; format: functional
HeLa [26] = assay: Tested for antiviral activity against coxsackie-B4 virus in human epithelial cell line; format: functional
Escherichia coli [27] = assay: Tested for the antimicrobial activity against Escherichia coli ATCC 25922; format: functional
MT4 [28] = assay: Tested for cytotoxic concentration required to reduce the viability of MT-4 cells by 50%; format: functional; details: Homo sapiens, read-out: LC50 (the source's name)
MOLT-4 [29] = assay: Tested for the inhibitory concentration against cell growth of human leukemic cell line MOLT-4; format: functional
HL-60 [30] = assay: Tested for the concentration required to reduce the viability of leukemia cells by 50% against cell growth of HL60 acute myeloid leukemia using MTT assay; format: functional; details: Homo sapiens, read-out: LC50 (the source's name)
RPMI-8226 [31] = assay: Tested for the concentration required to reduce the viability of leukemia cells by 50% against cell growth of RPMI8226 multiple myeloma using MTT assay; format: functional; details: Homo sapiens
HEL [32] = assay: Tested for antiviral activity against human cytomegalovirus (AD-169) in human embryonic lung fibroblasts; format: functional
HeLa [33] = assay: The compound was tested for antiviral activity against VSV-virus in human epithelial cells; format: functional
HeLa [34] = assay: Tested for cytotoxic activity in human epithelial cell line (HeLa); format: functional
Staphylococcus aureus [35] = assay: Tested for the antimicrobial activity against Staphylococcus aureus ATCC 6538; format: functional
CCRF-CEM [36] = assay: Tested for the inhibitory concentration against cell growth of human leukemic cell line CCRF-CEM; format: functional
K562 = assay: Tested for the concentration required to reduce the viability of leukemia cells by 50% against cell growth of K562 chronic myeloid leukemia using MTT assay; format: functional; details: Homo sapiens, read-out: LC50 (the source's name)
HuT78 [37] = assay: Tested for the concentration required to reduce the viability of leukemia cells by 50% against cell growth of HuT78 T lymphoma using MTT assay; format: functional; details: Homo sapiens, read-out: LC50 (the source's name)
HEL [38] = assay: Tested for antiviral activity against thymidine kinase deficient Varicella zoster virus in human embryonic lung fibroblasts; format: functional
Vero [39] = assay: Tested for antiviral activity against Punta toro virus in African green monkey kidney cell (Vero); format: functional; details: Chlorocebus sabaeus
MT4 [40] = assay: Tested for effective concentration required to protect MT-4 cells against the cytopathicity of HIV-1(IIIB); format: functional, cell-based; details: Homo sapiens
RPMI-8226 [41] = assay: Tested for the inhibitory concentration against cell growth of […] multiple myeloma using MTT assay; format: functional; details: Homo sapiens
RPMI-8226 [42] = assay: Tested for the inhibitory concentration against cell growth of human leukemic cell line RPMI8226; format: functional
Staphylococcus hominis [43] = assay: Tested for the antimicrobial activity against Staphylococcus hominis ATCC 27844; format: functional
HL-60 [44] = assay: Tested for the inhibitory concentration against cell growth of human leukemic cell line HL60; format: functional
CCRF-CEM [45] = assay: Tested for the concentration required to reduce the viability of leukemia cells by 50% against cell growth of T cell leukemia cell line CCRF-CEM using MTT assay; format: functional; details: Homo sapiens, read-out: LC50 (the source's name)
Klebsiella pneumoniae [46] = assay: Tested for the antimicrobial activity against Klebsiella pneumoniae ATCC 13883; format: functional
Vero [47] = assay: Tested for antiviral activity against parainfluenza virus in african green monkey kidney cell (Vero); format: functional; details: Chlorocebus sabaeus
HL-60 [48] = assay: Tested for the inhibitory concentration against cell growth of HL60 acute myeloid leukemia using MTT assay; format: functional; details: Homo sapiens
Staphylococcus hominis [49] = assay: Tested for the antimicrobial activity minimum inhibitory concentration) against Staphylococcus hominis; format: functional
Escherichia coli [50] = assay: Tested for the antimicrobial activity minimum inhibitory concentration) against Escherichia coli; format: functional
Klebsiella pneumoniae [51] = assay: Tested for the antimicrobial activity minimum inhibitory concentration) against Klebsiella pneumoniae; format: functional

## Nc1nc2c(ncn2COCCO)c(=O)[nH]1 [ACYCLOVIR]
E6SM [1]
  MIC: > 400 µg/mL
HEL [2]
  MIC: 1.1 µg/mL (≈ 4.88 µM)
E6SM [3]
  MIC: 48 µg/mL (≈ 213 µM)
E6SM [4]
  MIC: 48 µg/mL (≈ 213 µM)
HEL [5]
  MIC: 12.3 µg/mL (≈ 54.6 µM)
E6SM [6]
  MIC: 0.08 µg/mL (≈ 0.355 µM)
E6SM [7]
  MIC: 0.08 µg/mL (≈ 0.355 µM)
HEL [8]
  MCC: > 50 µg/mL
E6SM [9]
  MCC: > 400 µg/mL

## Cc1cn([C@H]2C[C@H](N=[N+]=[N-])[C@@H](CO)O2)c(=O)[nH]c1=O [ZIDOVUDINE]
MT4 [10]
  EC50: 6 nM
MT4 [11]
  EC50: 6.4 nM
MT4 [12]
  CC50: > 500 µM

## CN[C@@H]1[C@H](O[C@H]2[C@H](O[C@H]3[C@H](O)[C@@H](O)[C@H](N=C(N)N)[C@@H](O)[C@@H]3N=C(N)N)O[C@@H](C)[C@]2(O)C=O)O[C@@H](CO)[C@H](O)[C@H]1O [STREPTOMYCIN]
[13]
  MIC: 2.1 µg/mL (≈ 3.61 µM)
Klebsiella pneumoniae [14]
  MIC: 0.6 µg/mL (≈ 1.03 µM)
Staphylococcus hominis [15]
  MIC: 2.1 µg/mL (≈ 3.61 µM)
Escherichia coli [16]
  MIC: 0.6 µg/mL (≈ 1.03 µM)
Staphylococcus aureus [17]
  MIC: 2.1 µg/mL (≈ 3.61 µM)

## N/C(S)=N\N=C(\c1ccccn1)C12CC3CC(CC(C3)C1)C2
MOLT-4 [18]
  CC50: 100 µM
Vero [19]
  MCC: 16 µg/mL
Vero [20]
  MIC: > 3.2 µg/mL
HuT78 [21]
  GI50: 2400 nM
[22]
  MIC: > 3180 µg/mL
Vero [23]
  MIC: > 3.2 µg/mL
Vero [24]
  MIC: > 3.2 µg/mL
E6SM [1]
  MIC: > 400 µg/mL
E6SM [25]
  MIC: > 20 µg/mL
E6SM [3]
  MIC: > 400 µg/mL
HeLa [26]
  MIC: 240 µg/mL (≈ 763 µM)
E6SM [4]
  CC50: > 400 µg/mL
Escherichia coli [27]
  MIC: > 3180 µg/mL
MT4 [28]
  CC50: > 400 µM
MOLT-4 [29]
  GI50: 6.4 µM
HL-60 [30]
  CC50: 100 µM
RPMI-8226 [31]
  CC50: 100 µM
HEL [32]
  MIC: > 5 µg/mL
HeLa [33]
  MIC: > 400 µg/mL
HeLa [34]
  MCC: > 400 µg/mL
Staphylococcus aureus [35]
  MIC: > 3180 µg/mL
CCRF-CEM [36]
  GI50: 100 µM
K562
  CC50: 100 µM
HuT78 [37]
  CC50: 100 µM
HEL [38]
  MIC: > 20 µg/mL
E6SM [6]
  MIC: > 400 µg/mL
Vero [39]
  MIC: > 3.2 µg/mL
MT4 [40]
  EC50: > 400 µM
RPMI-8226 [41]
  TGI: 100 µM
RPMI-8226 [42]
  GI50: 97.9 µM
Staphylococcus hominis [43]
  MIC: > 3180 µg/mL
HL-60 [44]
  GI50: 51.1 µM
CCRF-CEM [45]
  CC50: 100 µM
Klebsiella pneumoniae [46]
  MIC: > 3180 µg/mL
Vero [47]
  MIC: > 3.2 µg/mL
HL-60 [48]
  TGI: 100 µM
E6SM [7]
  CC50: > 400 µg/mL
HEL [8]
  MCC: > 20 µg/mL
E6SM [9]
  MCC: > 400 µg/mL

## NC(=O)c1ncn([C@@H]2O[C@H](CO)[C@@H](O)[C@H]2O)n1 [RIBAVIRIN]
Vero [19]
  MCC: > 400 µg/mL
Vero [20]
  MIC: 240 µg/mL (≈ 983 µM)
Vero [23]
  MIC: 80 µg/mL (≈ 328 µM)
Vero [24]
  MIC: 80 µg/mL (≈ 328 µM)
E6SM [1]
  MIC: 240 µg/mL (≈ 983 µM)
E6SM [3]
  MIC: 400 µg/mL (≈ 1640 µM)
HeLa [26]
  MIC: 48 µg/mL (≈ 197 µM)
Staphylococcus hominis [49]
  MIC: > 400 µg/mL
HeLa [33]
  MIC: 240 µg/mL (≈ 983 µM)
Escherichia coli [50]
  MIC: > 400 µg/mL
HeLa [34]
  MCC: > 400 µg/mL
Klebsiella pneumoniae [51]
  MIC: > 400 µg/mL
Vero [39]
  MIC: 16 µg/mL (≈ 65.5 µM)
Vero [47]
  MCC: 48 µg/mL
E6SM [9]
  MCC: > 400 µg/mL
